Test results published in ChEMBL document CHEMBL1201862, “PubChem BioAssay data set” (2004).
Calls of active or inactive are those of the source. Rule as the data show it, for most assays here: actives have a measured EC50 and inactives only a lower limit.

What was measured:
Protein skinhead-1 = biological target: T1, Protein skinhead-1 (Caenorhabditis elegans, UniProt P34707); assay type: functional
T1 sequence (P34707 whole entry): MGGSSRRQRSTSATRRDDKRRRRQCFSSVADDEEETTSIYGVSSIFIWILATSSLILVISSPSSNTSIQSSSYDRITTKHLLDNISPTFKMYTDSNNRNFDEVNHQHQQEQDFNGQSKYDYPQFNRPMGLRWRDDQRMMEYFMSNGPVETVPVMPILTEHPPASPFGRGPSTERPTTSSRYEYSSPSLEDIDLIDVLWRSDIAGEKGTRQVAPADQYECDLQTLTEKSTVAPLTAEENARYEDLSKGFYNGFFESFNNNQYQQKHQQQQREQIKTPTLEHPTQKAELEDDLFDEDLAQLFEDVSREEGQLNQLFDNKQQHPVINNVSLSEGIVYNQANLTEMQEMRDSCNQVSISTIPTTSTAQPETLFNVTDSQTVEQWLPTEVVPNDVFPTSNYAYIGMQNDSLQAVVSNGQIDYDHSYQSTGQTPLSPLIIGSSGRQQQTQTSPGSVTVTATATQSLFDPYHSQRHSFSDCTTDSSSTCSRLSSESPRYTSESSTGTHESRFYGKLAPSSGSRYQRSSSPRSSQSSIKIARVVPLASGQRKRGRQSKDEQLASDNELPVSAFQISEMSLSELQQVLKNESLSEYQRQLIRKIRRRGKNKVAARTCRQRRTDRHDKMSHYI

[1] = biological target: Luciferin 4-monooxygenase (Photinus pyralis, UniProt P08659); assay: firefly luciferase enzyme inhibitors, dose response, biochemical, luminescence (AID 1891)
Chain of Luciferin 4-monooxygenase (P08659 whole entry): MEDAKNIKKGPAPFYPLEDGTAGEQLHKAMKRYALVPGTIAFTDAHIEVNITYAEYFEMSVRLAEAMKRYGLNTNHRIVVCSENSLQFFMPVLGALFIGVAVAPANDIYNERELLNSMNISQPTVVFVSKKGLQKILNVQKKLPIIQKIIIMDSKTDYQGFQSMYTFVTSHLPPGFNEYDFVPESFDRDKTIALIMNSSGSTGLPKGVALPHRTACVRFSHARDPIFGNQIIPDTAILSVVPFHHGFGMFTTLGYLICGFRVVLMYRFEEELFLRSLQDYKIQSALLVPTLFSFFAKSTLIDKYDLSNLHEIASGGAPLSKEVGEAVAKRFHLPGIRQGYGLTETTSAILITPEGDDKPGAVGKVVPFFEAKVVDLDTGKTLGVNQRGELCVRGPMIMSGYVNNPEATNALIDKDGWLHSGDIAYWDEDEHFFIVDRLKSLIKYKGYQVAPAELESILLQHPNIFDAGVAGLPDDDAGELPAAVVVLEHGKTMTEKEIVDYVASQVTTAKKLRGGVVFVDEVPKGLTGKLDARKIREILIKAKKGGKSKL

[2] = Luminescence Cell-Based Dose Confirmation HTS to Identify Inhibitors of Platelet Dense Granule Release. [Related pubchem assays: 1663 (Primary HTS), 1678 (Summary of Project)]; assay type: functional
[3] = Luminescence Cell-Based Dose Confirmation HTS to Identify Activators of 5'UTR Stem-Loop Driven Alpha-Synuclein mRNA Translation in H4 Neuroglioblastoma Cells. [Related pubchem assays: 1829 (Project Summary), 1814 (Primary HTS)]; assay type: functional
[4] = growth suppression of beta-catenin-knockout colon cells, dose response, cell-based, HCT116, human colon tumor (AID 1045); assay type: functional;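 also: HCT116 colon tumor cells with beta catenin knocked out; cells exposed to compound for 60 hours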
[5] = Luminescence Cell-Based Dose Response HTS to Identify Activators of Luciferase Translation or Activity in H4 […] Cells. [Related pubchem assays: 1829 (Project Summary), 1814 (Primary HTS)]; assay type: functional
[6] = growth suppression of PTEN-null colon cells, dose response, cell-based, HCT116 PTEN knockout (AID 1047); assay type: functional;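 also: HCT116 colon tumor cells with PTEN knocked out; cells exposed to compound for 60 hours before readout; potency for loss of cell viability measured by luminescence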
H4 = assay: Luminescence Cell-Based Dose Response HTS to Identify Activators of 5'UTR Stem-Loop Driven Prion Protein mRNA Translation in H4 Neuroglioblastoma Cells. [Related pubchem assays: 1829 (Project Summary), 1814 (Primary HTS)]; assay type: functional; conditions: Homo sapiens
[7] = biological target: T2, Ubiquitin-conjugating enzyme E2 N (Homo sapiens, UniProt P61088); assay type: functional;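 also: Dose-response confirmation in a TR-FRET assay detecting UBC13-driven polyubiquitin chain formation, inhibition measured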
T2 sequence (P61088 whole entry): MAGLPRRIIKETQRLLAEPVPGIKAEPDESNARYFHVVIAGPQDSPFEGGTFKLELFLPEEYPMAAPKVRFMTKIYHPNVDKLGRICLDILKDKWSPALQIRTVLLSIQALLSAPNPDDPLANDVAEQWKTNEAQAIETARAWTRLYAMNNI

[8] = biological target: T3, Carboxy-terminal domain RNA polymerase II polypeptide A small phosphatase 1 (Homo sapiens, UniProt Q9GZU7); assay: inhibitors of CTDSP1, concentration-response testing, biochemical assay, absorbance-based, actives from ultra-high-throughput screening (AID 540297); assay type: functional
T3 sequence (Q9GZU7 whole entry): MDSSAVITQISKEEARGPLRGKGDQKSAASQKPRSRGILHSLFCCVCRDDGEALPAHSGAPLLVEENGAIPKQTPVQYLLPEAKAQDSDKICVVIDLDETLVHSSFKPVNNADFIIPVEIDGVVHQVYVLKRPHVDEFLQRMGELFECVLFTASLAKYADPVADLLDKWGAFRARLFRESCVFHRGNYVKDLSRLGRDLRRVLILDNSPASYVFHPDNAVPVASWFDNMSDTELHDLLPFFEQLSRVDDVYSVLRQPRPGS

[9] = biological target: FAD-linked sulfhydryl oxidase ALR (Homo sapiens, UniProt P55789); assay: inhibitors of human ALR sulfhydryl oxidase, dose response, biochemical, H2O2 detection, luminescence, cherry-pick (AID 493248)
Chain of FAD-linked sulfhydryl oxidase ALR (P55789 whole entry): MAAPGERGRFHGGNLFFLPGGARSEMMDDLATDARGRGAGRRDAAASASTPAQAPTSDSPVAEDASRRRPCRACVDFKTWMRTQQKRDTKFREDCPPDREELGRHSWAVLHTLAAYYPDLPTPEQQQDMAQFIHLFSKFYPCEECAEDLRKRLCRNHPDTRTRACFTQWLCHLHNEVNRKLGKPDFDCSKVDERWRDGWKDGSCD

[10] = Luminescence Cell-Based Dose Retest to Confirm Inhibitors of Cancer Stem Cells. [Related pubchem assays (depositor defined):AID2717, AID2721]; assay type: functional; conditions: Homo sapiens
Streptococcus = assay: Group A Streptococcus viability loss, dose response, counter-screen for streptokinase expression inhibitor project, luminescence, BacTiterGlo (AID 1915); assay type: functional, organism-based;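 also: potency for reduction of bacterial viability or growth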
[11] = inhibitors of intracellular T. cruzi replication, confirmation, NIH3T3 host cells, beta-gal luminescence (AID 2044); assay type: functional, cell-based;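 also: intracellular parasites grown in NIH/3T3 mouse fibroblasts as host cells; luminescent beta-galactosidase reporter signal from transgenic T. cruzi replicating inside host cells; inhibitors lower the luminescence signal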
Streptokinase A = biological target: T4, Streptokinase A (Streptococcus pyogenes serotype M1, UniProt P10520); assay: S. pyogenes streptokinase expression inhibitors, potency, dose response, plasminogen activation absorbance, OD405 (AID 1914); assay type: functional, Streptococcus pyogenes M1 GAS;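 also: secreted streptokinase activity via plasminogen activation per viability signal from cell pellet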
T4 sequence (P10520 whole entry): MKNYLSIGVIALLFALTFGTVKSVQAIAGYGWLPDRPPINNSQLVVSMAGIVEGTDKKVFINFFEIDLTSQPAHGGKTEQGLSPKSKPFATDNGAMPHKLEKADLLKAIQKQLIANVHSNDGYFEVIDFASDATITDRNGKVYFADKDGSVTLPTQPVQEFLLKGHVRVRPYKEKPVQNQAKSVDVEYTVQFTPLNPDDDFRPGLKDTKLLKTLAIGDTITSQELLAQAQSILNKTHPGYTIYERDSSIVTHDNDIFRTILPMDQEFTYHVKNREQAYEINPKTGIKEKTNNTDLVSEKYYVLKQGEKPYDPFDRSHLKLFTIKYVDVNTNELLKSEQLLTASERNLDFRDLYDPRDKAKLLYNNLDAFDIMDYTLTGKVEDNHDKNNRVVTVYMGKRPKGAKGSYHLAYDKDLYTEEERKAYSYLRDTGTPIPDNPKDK

[12] = NIH-3T3 fibroblast cytotoxicity, dose response, cytotoxicity control, cell-based, fluorescence, Alamar Blue, secondary assay (AID 2327); assay type: functional;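 also: NIH-3T3 mouse fibroblasts cultured with fluconazole at 8 µg/mL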
[13] = test system: Streptococcus sp. 'group A'; assay: growth inhibition of control SK(-) GAS strain, dose response, counter-screen for streptokinase expression inhibitor project, luminescence, kanamycin, BacTiterGlo, confirmation (AID 1900); assay type: functional, organism-based
[14] = cytotoxicity toward NIH3T3 fibroblasts, dose response, counter-screen, cell-based, ATP luminescence, mouse fibroblasts (AID 2010); assay type: functional;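 also: cells exposed to compound for about 90 hours before reading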
[15] = C. albicans growth with fluconazole, confirmation, fluorescence, retest (AID 2467); assay type: functional, cell-based

With `O=C(NCCC1=CCCCC1)NC1CCCCC1` the IC50 (Protein skinhead-1) was > 100 µM (inactive), the EC50 [1] was > 112 µM (not active) and the EC50 [2] was > 112 µM (not active).
With `CC1=NN(c2ccccc2)C(=O)/C1=C/c1cc2cc(C)ccc2nc1N1CCCCC1` the EC50 [3] was 8.69 µM (active), the EC50 [4] was 25.2 µM (active) and the EC50 [5] was 17.1 µM (active). For the same compound, the EC50 [6] was 17.8 µM (active) and the EC50 (H4) was > 120 µM (inconclusive).
In the case of `O=C(NC(=S)Nc1ccc(N2CCN(C(=O)c3ccccc3)CC2)cc1)c1cccs1`, the IC50 [7] is reported as > 20 µM (inactive).
For `Cc1ccc(C)c(N2CCN(S(=O)(=O)c3ccc4c(c3)OCCO4)CC2)c1`, the EC50 [1] was > 112 µM (not active) and the EC50 [2] was > 112 µM (not active).
With `Cc1cc(C)c(C)c(S(=O)(=O)N[C@@H](C)C(=O)OCc2cc(=O)n3cc(Br)ccc3n2)c1C` the IC50 [8] was 7.42 µM (active).
With `O=C(NCSc1ccncn1)c1ccccc1` the AC50 [9] was 1.49 µM (active).
In the case of `CC(C)C(=O)Nc1ncc2c(n1)CC(c1cccs1)CC2=O` (stereo not given), the EC50 [1] is reported as > 112 µM (not active) and the EC50 [2] is reported as > 112 µM (not active).
For `COc1cc(C(=O)Nc2ccc(Br)cc2C(=O)c2ccccc2Cl)cc(OC)c1OC`, the EC50 [4] was 29 µM (active) and the EC50 [6] was 153 µM (active).
With `Cc1ccc(OCCCC(=O)NNC(=O)c2ccccn2)cc1` the IC50 [7] was > 20 µM (inactive).
With `Cc1nn(-c2ccc(F)cc2)c(Cl)c1/C=N/NC(=O)c1cccc(S(=O)(=O)N2CCCC2)c1` the IC50 [8] was 10.7 µM (active).
For `O=C(N/N=C/c1ccc2c(c1)OCO2)c1ccc(COCC(F)(F)C(F)F)cc1`, the IC50 [8] was 9.06 µM (active) and the AC50 [10] was 1.12 µM (active).
In the case of `OC(CNCC1CCCO1)Cn1c2ccc(Br)cc2c2cc(Br)ccc21` (stereo not given), the EC50 (Streptococcus) is reported as 8.12 µM (active), the EC50 [4] is reported as 4.46 µM (active) and the EC50 [11] is reported as 0.533 µM (active). The EC50 [6] was 4.41 µM (active), the EC50 (Streptokinase A) was 7.22 µM (active) and the EC50 [12] was 9.05 µM (inconclusive). For the same compound, the EC50 [13] was 3.18 µM (active), the EC50 [14] was > 60 µM (inconclusive) and the EC50 [15] was > 38 µM (not active).
